Measured values from PubChem BioAssay (NCI).
Where “and” joins values, the source holds several entries; their conditions need not be identical. Equal values may be shown once.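 Grown in 96-well plates, cells were treated for 48 hours with each compound at five concentrations. Insufficient inhibition: endpoint recorded as highest concentration tested. At the TGI there is no net growth.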 Where a SMILES comes first, the peptide text is derived from it. [ ]: non-standard residue; d: D form. The star is where a group is joined. Cbz = O=C(OCc1ccccc1)*; Boc = CC(C)(C)OC(=O)*; Aib = CC(C)(N)C(=O)O; OBn = c1ccc(CO*)cc1; OtBu = CC(C)(C)O*; βAla = NCCC(=O)O

Key:
Experiment in all cases: growth of human tumour cells (NCI), 48 h
DU-145 prostate = test system: DU-145 prostate
HOP-92 NSCLC = test system: HOP-92 NSCLC
HS 578T breast = test system: HS 578T breast
IGROV1 ovarian = test system: IGROV1 ovarian
NCI-H226 lung = test system: NCI-H226 lung
PC-3 prostate = test system: PC-3 prostate
SF-268 CNS = test system: SF-268 CNS
U251 CNS = test system: U251 CNS
UO-31 renal = test system: UO-31 renal
SK-MEL-2 melanoma = test system: SK-MEL-2 melanoma

| Structure (SMILES) | TGI (DU-145 prostate) [µM] | TGI (HOP-92 NSCLC) [µM] | TGI (HS 578T breast) [µM] | TGI (IGROV1 ovarian) [µM] | TGI (NCI-H226 lung) [µM] | TGI (PC-3 prostate) [µM] | TGI (SF-268 CNS) | TGI (U251 CNS) [µM] | TGI (UO-31 renal) [µM] | TGI (SK-MEL-2 melanoma) [µM] |
| --- | --- | --- | --- | --- | --- | --- | --- | --- | --- | --- |
| COc1ccc(OC)c2cc(Cc3ccc(N(C)C)cc3)c(=O)c(Cc3ccc(N(C)C)cc3)cc12 | > 100 | > 100 | 87.7 | > 100 | > 100 | > 100 | > 100 µM | > 100 | > 100 | – |
| CCCCSc1n/c(=C\c2ccc(N(C)C)cc2)c2nnnn12 | > 100 | > 100 | > 100 | > 100 | > 100 | > 100 | > 100 µM | > 100 | > 100 | > 100 |
| NC(CCCCNC(=O)OCc1ccccc1)C(=O)NC(CCCCNC(=O)OCc1ccccc1)C(=O)ON1C(=O)CCC1=O (stereo not given) | – | > 100 | > 100 | > 100 | > 100 | > 100 | – | > 100 | > 100 | > 100 |
| CC(C)(C)OC(=O)CC(NC(=O)OC(C)(C)C)C(=O)NC(CCCCNC(=O)OCc1ccccc1)C(=O)NC(C)(C)C(=O)NCCC(=O)OCc1ccccc1 (stereo not given) (Boc-D(OtBu)K(Cbz)[Aib][βAla]-OBn; configuration not given here) | > 100 | > 100 | > 100 | > 100 | > 100 | > 100 | > 100 µM | > 100 | > 100 | – |
| COc1cc2ccnc3c2c(c1O)N(C)C=C3 | > 62 | > 100 | 53.1 | 26.1 | 37.4 | 29.5 | 36.6 µM | > 100 | 22.3 | 33.9 |
| CSC1SCC2C(=O)N(C)C3(CC3C)C(=O)OCC(NC(=O)c3nc4ccccc4cc3O)C(=O)NC(C)C(=O)N(C)C1C(=O)N(C)C1(CC1C)C(=O)OCC(NC(=O)c1nc3ccccc3cc1O)C(=O)NC(C)C(=O)N2C (stereo not given) | > 100 | < 0.0001 | < 0.0001 | 0.281 | < 0.0001 | – | 0.00684 µM and 0.0159 µM | < 0.0001 | 0.0093 | – |
| O=C(NCCO)c1ccc(Cl)cc1 | > 100 | > 100 | > 100 | > 100 | > 100 | > 100 | > 100 µM | > 100 | > 100 | > 100 |
| COC(=O)c1cncc2c1CC1C3(C(=O)OC)C=NC(C4C(CO)=CCC43)C21C (stereo not given) | > 100 | > 100 | > 100 | > 100 | > 100 | > 100 | > 100 µM | > 100 | > 100 | > 100 |
| COc1ccc2c(c1)CCc1c-2n(CCN(C)C)c2ccc(OC)cc12 | > 100 | > 100 | 77 | 79.5 | 10.6 | 46 | > 100 µM | 78.7 | 47.8 | 40 |
| CSc1ncc2c(n1)-c1ccccc1OC2N1CCCC1 (stereo not given) | > 100 | > 100 | > 100 | > 100 | > 100 | > 100 | > 100 µM | > 100 | > 100 | > 100 |
| COC(=O)[C@@H]1N2C(=S)N(c3ccccc3)C(=O)[C@H]2SC1(C)C | > 100 | 69.2 | – | > 100 | > 100 | > 100 | > 100 µM | > 100 | > 100 | > 100 |
| CCN(CC)CCCNc1ccc2nnn3c4ccc(O)cc4c(=O)c1c23 | 24.1 | 43.8 | 31 | 19.4 | 22.4 | 19.3 | 18.6 µM | 7.61 | 6.27 | 28.8 |
| CC(C)(C)N1Cc2ccccc2/C(=C/Sc2ccccc2)C1=O | 32.7 | 27.8 | 41.2 | 24 | 25.9 | 26.6 | 20.2 µM | 27.3 | 24.8 | 31.4 |
| COc1ccc(CNc2nc(NCc3ccc(OC)cc3)nc(N3CCOCC3)n2)cc1 | > 100 | > 100 | > 100 | > 100 | > 100 | > 100 | – | > 100 | > 100 | > 100 |
| CN(C(=O)c1ccc(Cl)s1)C(=S)N(C)C(=O)c1ccc(Cl)s1 | > 10 | > 10 | > 10 | > 10 | > 10 | > 10 | > 10 µM | > 10 | > 10 | > 10 |
| COC(OC)C(O)C1OC=CC1n1cnc2c(N)ncnc21 (stereo not given) | > 100 | > 100 | > 100 | > 100 | > 100 | > 100 | > 100 µM | > 100 | > 100 | > 100 |
| Cc1[nH]c(-c2ccccc2)c(-c2ccc(Cl)cc2)c1C(=O)ONC(=O)c1ccccc1 | 3.76 | 4.01 | 5.72 | 2.52 | 11.6 | 17.2 | 6.9 µM | 3.6 | 2.89 | 11.2 |
| Cc1cc(S(=O)(=O)Nc2nc(N)nc(N3N=CCC3C)n2)c(S)cc1Cl (stereo not given) | > 10 | > 10 | > 10 | > 10 | > 10 | > 10 | > 10 µM | > 10 | > 10 | > 10 |
| Cc1ccc2c(c1)OC1Nc3ccccc3C1=C2O (stereo not given) | > 100 | > 100 | > 100 | > 100 | 89.1 | 39.6 | > 100 µM | 57.5 | 61.6 | 47.6 |
| CC(C)n1c(=O)n(-c2ccccc2)n(C(C)(C)C)c1=O | – | > 100 | > 100 | > 100 | > 100 | > 100 | – | > 100 | > 100 | > 100 |
